Patent publication US20180072675A1, “ANTIMICROBIAL PYRIDINOHYDRAZIDE AND HYDRAZOMETHYLPYRIDINE-BASED AGENTS” (Board of Supervisors of Louisiana State University and …, priority 2015, published 2018)
In brackets after ≈: the same amount, converted by molar mass. Like-named read-outs stand apart in the source and are kept apart here.

What was measured:
[1] = test system: C. albicans clinical isolate 1 (TW1); experiment: MIC80 fungal growth inhibition, clinical isolate TW1; format: cell-based, Candida albicans; conditions: for MIC80: Candida albicans, read-out: MIC80 TW1
Procedure: (§1) The antifungal activity of the pyridinohydrazide and hydrazomethylpyridine derivatives described in the s were evaluated in vitro using Candida albicans (ATCC Accession No. 10231) and Candida glabrata (ATCC Accession No. 48435). In addition, the compounds were evaluated for activity against two previously-described clinical isolates of C. albicans known to have developed azole-resistance. These isolates were obtained over a two year period from a single AIDS patient and the development of the azole-resistance mechanisms have been extensively characterized (White T C. Antimicrob. Agents Chemother. (1997) 41: 1482-1487). MIC assays were performed on the clinical isolates 1 and 17 (annotated TW1 and TW17, respectively), where isolate 1 was used as an azole-susceptible control and isolate 17 was considered azole-resistant. All assays were done in accordance with NCCLS reference documents (Clinical Laboratory and Standards Institute. Reference method for Broth Dilution Antifungal Susceptibility Testing of Yeasts: Approved Standard. M27-A3 2010; 28). The results of these screenings are summarized in Tables 1-9 (Examples 20-27) as the minimum concentrations that inhibited more than 80% of fungal growth (MIC80) as compared to positive controls containing 1% DMSO. Assays were performed in HEPES-buffered RPMI-1640 media. All MIC screens used a visual scoring method as opposed to spectroscopic analysis, due to the altered absorbance spectra of many of the compounds.

[2] = test system: C. albicans clinical isolate 17 (TW17); experiment: MIC80 fungal growth inhibition, clinical isolate TW17; format: cell-based, Candida albicans; conditions: for MIC80: Candida albicans, read-out: MIC80 TW17
Procedure: as §1

[3] = test system: Candida albicans (ATCC Accession No. 10231); experiment: MIC80 fungal growth inhibition, C. albicans ATCC 10231; format: cell-based; conditions: for MIC80: Candida albicans
Procedure: as §1

[4] = test system: Candida glabrata (ATCC Accession No. 48435); experiment: MIC80 fungal growth inhibition, C. glabrata ATCC 48435; format: cell-based; conditions: for MIC80: Nakaseomyces glabratus
Procedure: as §1

Vero (kidney) cells = experiment: Mammalian cell toxicity, Promega CellTiter 96, kidney cells; format: cell-based; conditions: 24 h
Procedure: (§2) Cytotoxicity was determined using non-cancerous Vero cells (kidney-african green monkey) and liver cells (Hep-2G) in accordance with Promega CellTiter 96 Non-Radioactive Cell Proliferation Assay (cat # G4000). Compounds were diluted in media and all assays were done in triplicate. Average values are presented, with ±SD. Cells were incubated in the presence of the compounds for 24 h at 37° C. and 5% CO2. Tetrazolium dye solution was added to each well and allowed to incubate for 1-4 h. Solubilization/Stop solution was added and allowed to sit at room temperature for 1 h. Formazan product was scored spectrophotometrically with an automatic plate reader set at 570 nm. Positive control wells for cell death were briefly treated with 0.1% saponin, immediately prior to the addition of dye solution. Wells containing 1% DMSO and no drug were used as a negative control and the average absorbance at 570 nm were set to 100%. The percent of cells viable were calculated as a ratio between the average absorption at 570 nm of the drug containing wells/average absorption at 570 nm of the control (no drug). Ratios were multiplied by 100 to give the values as a percentage as expressed on the y-axis.
(§3) Cytotoxicity studies were performed in accordance with Promega CellTiter 96 Non-RadioactivCell Proliferation Assay (cat #G4000). All cytotoxicity studies used a negative control (wells of either kidney or liver cells containing 1% DMSO but lacking the analog), a positive control (wells of either kidney or liver cells treated with the known cytotoxic agent, saponin) and the serial dilutions of the novel analogs. All control (negative) wells were normalized to 100% viable cells to accurately show the percentage of either liver or kidney cells that remained alive and viable following either overnight incubation with the analogs or 5-minute treatment with 0.1% saponin.

Hep G2 (liver) cells = experiment: Mammalian cell toxicity, Promega CellTiter 96, liver cells; format: cell-based; conditions: 24 h
Procedure: as §2, §3

Candida spp. = experiment: MIC studies, statements pooled over several isolates; format: cell-based, Candida albicans, Candida glabrata; conditions: for antifungal activity (in words): overall over the isolates tested
Procedure: as §1

[5] = Azole-susceptible, >80% growth inhibition, visual scoring
[6] = Azole-resistant, >80% growth inhibition, visual scoring
[7] = ATCC10231, Azole-susceptible, >80% growth inhibition, visual scoring, read-out: MIC80 C. albicans ATCC No. 10231
[8] = ATCC48435, Azole-resistant, >80% growth inhibition, visual scoring, read-out: MIC80 C. glabrata ATCC No. 48435

Structure (SMILES) | MIC80 [1, 5] [µg/mL] | MIC80 [2, 6] [µg/mL] | MIC80 [3, 7] [µg/mL] | MIC80 [4, 8] [µg/mL] | cell toxicity (Vero (kidney) cells; 100× MIC) | cell toxicity (Hep G2 (liver) cells; 100× MIC) | MIC80 TW1 [1, 5] [µg/mL] | MIC80 TW17 [2, 6] [µg/mL] | MIC80 C. albicans ATCC No. 10231 [3, 5] [µg/mL] | cell toxicity (Vero (kidney) cells; 5 times the MIC) | activity against azole-resistant isolates (in words) (Candida spp.; azole-resistant isolates) | MIC80 C. glabrata ATCC No. 48435 [4, 6] [µg/mL] | cell toxicity (Vero (kidney) cells; through 10× MIC) | cell toxicity (Hep G2 (liver) cells; through 10× MIC) | antifungal activity (in words) (Candida spp.) | cell toxicity (Hep G2 (liver) cells; 5× MIC) | MIC80 [1] [µg/mL] | MIC80 [2] [µg/mL] | MIC80 ([3]; ATCC10231, read-out: MIC80 C. albicans ATCC No. 10231) [µg/mL] | MIC80 ([4]; ATCC48435, read-out: MIC80 C. glabrata ATCC No. 48435) [µg/mL]
Cc1ccc(O)c(/C=N/NC(=O)c2ccccn2)c1 [AR2, (E)-N′-(2-Hydroxy-5-methylbenzylidene)picolinohydrazide] | 4 (≈ 15.7 µM) | 8 (≈ 31.3 µM) | 2 (≈ 7.83 µM) | 2 (≈ 7.83 µM) | minimal toxicity | minimal toxicity |  |  |  |  |  |  |  |  |  |  |  |  |  | 
O=C(NN=Cc1cc([N+](=O)[O-])ccc1O)c1cccnc1 [AR12] |  |  |  |  |  |  | 8 (≈ 27.9 µM) | 8 (≈ 27.9 µM) | 4 (≈ 14 µM) | elevated toxicity | less active |  |  |  |  |  |  |  |  | 
O=C(NN=Cc1cc([N+](=O)[O-])ccc1O)c1ccncc1 [AR18] |  |  |  |  | minimal cytotoxicity | minimal cytotoxicity | 8 (≈ 27.9 µM) | 8 (≈ 27.9 µM) | 4 (≈ 14 µM) |  |  | 31 (≈ 108 µM) | not toxic | not toxic | most potent |  |  |  |  | 
O=C(N/N=C/c1cc(Br)ccc1O)c1ccc[n+]([O-])c1 [AR27] | 8 (≈ 23.8 µM) | 8 (≈ 23.8 µM) | 16 (≈ 47.6 µM) | 4 (≈ 11.9 µM) |  |  |  |  |  | cytotoxic |  |  |  |  |  | cytotoxic |  |  |  | 
C(=N\Nc1ccccc1)/c1cccnc1 [AR44] | 16 (≈ 81.1 µM) | 8 (≈ 40.6 µM) | 16 (≈ 81.1 µM) | 16 (≈ 81.1 µM) | toxic | toxic |  |  |  |  |  |  | no cell toxicity | no cell toxicity | moderate antifungal activity |  |  |  |  | 
C(=N\Nc1ccccc1)/c1ccncc1 [AR48] |  |  |  |  | toxic | toxic |  |  |  |  |  |  | no cell toxicity | no cell toxicity | moderate antifungal activity |  | 16 (≈ 81.1 µM) | 8 (≈ 40.6 µM) | 31 (≈ 157 µM) | 4 (≈ 20.3 µM)
